Source: patent publication US9567320B2, “Pyridazinone-amides derivatives” (Merck Patent GmbH, priority 2013, dated 2017)

Tests used:
IRAK1 = IRAK1 (Homo sapiens (Human), UniProt P51617); experiment: IRAK1 enzymatic assay; format: biochemical; settings: human recombinant His-TEV-IRAK1, ATP 1 μM, FlashPlate
Protocol: IRAK1 is a human purified recombinant enzyme (His-TEV-IRAK1 (194-712)) In this assay, IRAK-1 hydrolyses ATP and autophosphorylates.
Measurement of IRAK-1 inhibition is performed in streptavidin coated 384 well FlashPlate (PerkinElmer #SMP410A).
(§1) His-TEV-IRAK-1 (15 ng/well), ATP (1 μM, [^33P]ATP 0.25 μCi/well) and compounds in DMSO (range of concentrations from 20 μM to 1 nM) or controls (2% DMSO) are incubated for 3 hours at 30° C. in assay buffer: Hepes pH7.0 50 mM, Fatty acid-free BSA 0.1%, Dithiothreitol DTT 2 mM, MgCl2 10 mM, EGTA 0.5 mM, Triton-X-100 0.01%. Kinase reaction is stopped by addition of EDTA. Supernatant is discarded, plates are washed three times with 150 mM NaCl and radioactivity is then measured in a Microbeta Trilux reader.

IRAK4 = IRAK4 (Homo sapiens (Human), UniProt Q9NWZ3); experiment: IRAK4 enzymatic assay; format: biochemical; settings: human recombinant His-TEV-IRAK4, ATP 2 μM, STK1-biotin peptide, FlashPlate
Protocol: IRAK4 is a human purified recombinant enzyme (His-TEV-IRAK1 (194-712)
IRAK4 hydrolyses ATP, autophosphorylates and phosphorylates a Serine/Threonine generic peptidic substrate (STK: 61ST1BLC from CisBio International based in Bagnols/Cèze FR).
as §1, with “Measurement of IRAK-4 inhibition is performed in streptavidin coated 384 well FlashPlate (PerkinElmer #SMP410A). His-TEV-IRAK4 (20” for “His-TEV-IRAK-1 (15”, “(2” for “(1”, “μCi/well), STK1-biotin peptide (300 nM)” for “μCi/well)”, “Tween-20 0.01%, MnCl2 5 mM.” for “Triton-X-100 0.01%.”

Chain of IRAK4 (Q9NWZ3 whole entry): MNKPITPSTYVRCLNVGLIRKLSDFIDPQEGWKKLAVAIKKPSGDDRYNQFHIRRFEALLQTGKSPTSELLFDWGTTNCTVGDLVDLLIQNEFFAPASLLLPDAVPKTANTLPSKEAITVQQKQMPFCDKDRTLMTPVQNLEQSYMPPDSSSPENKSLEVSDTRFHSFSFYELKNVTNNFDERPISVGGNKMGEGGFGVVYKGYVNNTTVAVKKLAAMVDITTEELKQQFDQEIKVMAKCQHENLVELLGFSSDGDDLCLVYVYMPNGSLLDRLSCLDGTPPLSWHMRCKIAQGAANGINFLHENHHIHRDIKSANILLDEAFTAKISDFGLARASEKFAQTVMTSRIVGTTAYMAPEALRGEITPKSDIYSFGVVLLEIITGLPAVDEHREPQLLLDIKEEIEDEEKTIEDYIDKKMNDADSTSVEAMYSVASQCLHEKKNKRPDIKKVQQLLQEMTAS
Chain of IRAK1 (P51617 194-712): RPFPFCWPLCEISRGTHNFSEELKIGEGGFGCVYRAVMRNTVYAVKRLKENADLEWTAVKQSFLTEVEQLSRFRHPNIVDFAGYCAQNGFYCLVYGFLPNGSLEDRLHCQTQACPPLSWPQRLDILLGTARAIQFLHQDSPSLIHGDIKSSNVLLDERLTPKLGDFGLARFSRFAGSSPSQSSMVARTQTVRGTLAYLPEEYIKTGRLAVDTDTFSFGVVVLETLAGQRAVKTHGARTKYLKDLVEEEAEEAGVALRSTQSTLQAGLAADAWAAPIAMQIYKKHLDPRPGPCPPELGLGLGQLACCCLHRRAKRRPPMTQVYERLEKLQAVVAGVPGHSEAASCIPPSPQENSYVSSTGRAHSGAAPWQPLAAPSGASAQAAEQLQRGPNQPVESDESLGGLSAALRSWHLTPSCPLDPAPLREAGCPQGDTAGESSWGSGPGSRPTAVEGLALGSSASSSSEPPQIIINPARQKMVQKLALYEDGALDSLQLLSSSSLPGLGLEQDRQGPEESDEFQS

Row | Structure (SMILES) | IC50 (IRAK1) [nM] | IC50 (IRAK4) [nM]
1 | CC(C)(C)C(=O)Oc1ccc2[nH]c(NC(=O)c3cccc(Cn4nc(-c5cccnc5)ccc4=O)c3)nc2c1 [Example 1, 2,2-Dimethyl-propionic acid 2-[3-(6-oxo-3-pyridin-3-yl-6H-pyridazin-1-ylmethyl)-benzoylamino]-1H-benzoimidazol-5-yl ester] | 100 to 1000 | < 100
2 | O=C(Nc1nc2ccccc2[nH]1)c1cccc(Cn2nc(-c3cccnc3)ccc2=O)c1 [Example 2, N-(1H-Benzoimidazol-2-yl)-3-(6-oxo-3-pyridin-3-yl-6H-pyridazin-1-ylmethyl)-benzamide] | < 100 | 100 to 1000
3 | Cn1c(NC(=O)c2cccc(Cn3nc(-c4cccnc4)ccc3=O)c2)nc2ccccc21 [Example 3, N-(1-Methyl-1H-benzoimidazol-2-yl)-3-(6-oxo-3-pyridin-3-yl-6H-pyridazin-1-ylmethyl)-benzamide] |  | 1000 to 5000
4 | COC(=O)c1ccc2[nH]c(NC(=O)c3cccc(Cn4nc(-c5cccnc5)ccc4=O)c3)nc2c1 [Example 4, 2-[3-(6-Oxo-3-pyridin-3-yl-6H-pyridazin-1-ylmethyl)-benzoylamino]-1H-benzoimidazole-5-carboxylic acid methyl ester] |  | 1000 to 5000
5 | O=C(Nc1nc2cc(CO)ccc2[nH]1)c1cccc(Cn2nc(-c3cccnc3)ccc2=O)c1 [Example 5, N-(5-Hydroxymethyl-1H-benzoimidazol-2-yl)-3-(6-oxo-3-pyridin-3-yl-6H-pyridazin-1-ylmethyl)-benzamide] | < 100 | < 100
6 | CN(C)C(=O)Cc1ccc2[nH]c(NC(=O)c3cccc(Cn4nc(-c5cccnc5)ccc4=O)c3)nc2c1 [Example 6, N-(5-Dimethylcarbamoylmethyl-1H-benzoimidazol-2-yl)-3-(6-oxo-3-pyridin-3-yl-6H-pyridazin-1-ylmethyl)-benzamide] | < 100 | < 100
7 | O=C(Nc1nc2ccccc2[nH]1)c1cccc(Cn2nc(-c3ccc(CO)nc3)ccc2=O)c1 [Example 7, N-(1H-Benzoimidazol-2-yl)-3-[3-(6-hydroxymethyl-pyridin-3-yl)-6-oxo-6H-pyridazin-1-ylmethyl]-benzamide] |  | < 100
8 | O=C(Nc1nc2ccccc2[nH]1)c1cccc(Cn2nc(-c3cncnc3)ccc2=O)c1 [Example 8, N-(1H-Benzoimidazol-2-yl)-3-(6-oxo-3-pyrimidin-5-yl-6H-pyridazin-1-ylmethyl)-benzamide] | 100 to 1000 | 100 to 1000
9 | Nc1ccc(-c2ccc(=O)n(Cc3cccc(C(=O)Nc4nc5ccccc5[nH]4)c3)n2)cn1 [Example 9, 3-[3-(6-Amino-pyridin-3-yl)-6-oxo-6H-pyridazin-1-ylmethyl]-N-(1H-benzoimidazol-2-yl)-benzamide] | < 100 | < 100
10 | Cc1cc(=O)n(Cc2cccc(C(=O)Nc3nc4ccccc4[nH]3)c2)nc1-c1cccnc1 [Example 10] | 100 to 1000 | 
11 | CN(C)Cc1ccc(-c2ccc(=O)n(Cc3cccc(C(=O)Nc4nc5ccccc5[nH]4)c3)n2)cn1 [Example 11, N-(1H-benzo[d]imidazol-2-yl)-3-((3-(6-((dimethylamino)methyl)pyridin-3-yl)-6-oxopyridazin-1(6H)-yl)methyl)benzamide] | 1000 to 5000 | 1000 to 5000
12 | Cc1ccncc1-c1ccc(=O)n(Cc2cccc(C(=O)Nc3nc4ccccc4[nH]3)c2)n1 [Example 12, N-(1H-benzo[d]imidazol-2-yl)-3-((3-(4-methylpyridin-3-yl)-6-oxopyridazin-1(6H)-yl)methyl)benzamide] |  | 100 to 1000
13 | Cc1cc(-c2ccc(=O)n(Cc3cccc(C(=O)Nc4nc5ccccc5[nH]4)c3)n2)cnn1 [Example 13, N-(1H-benzo[d]imidazol-2-yl)-3-((3-(6-methylpyridazin-4-yl)-6-oxopyridazin-1(6H)-yl)methyl)benzamide] | 100 to 1000 | 100 to 1000
14 | CN(C)Cc1cncc(-c2ccc(=O)n(Cc3cccc(C(=O)Nc4nc5ccccc5[nH]4)c3)n2)c1 [Example 14, N-(1H-benzo[d]imidazol-2-yl)-3-((3-(5-((dimethylamino)methyl)pyridin-3-yl)-6-oxopyridazin-1(6H)-yl)methyl)benzamide] |  | 1000 to 5000
15 | COc1cc2nc(NC(=O)c3cccc(Cn4nc(-c5cccnc5)ccc4=O)c3)[nH]c2cc1OC [Example 15, N-(5,6-dimethoxy-1H-benzo[d]imidazol-2-yl)-3-((6-oxo-3-(pyridin-3-yl)pyridazin-1(6H)-yl)methyl)benzamide] | 100 to 1000 | < 100
16 | COc1ccc2[nH]c(NC(=O)c3cccc(Cn4nc(-c5cccnc5)ccc4=O)c3)nc2c1 [Example 16, N-(5-methoxy-1H-benzo[d]imidazol-2-yl)-3-((6-oxo-3-(pyridin-3-yl)pyridazin-1(6H)-yl)methyl)benzamide] | < 100 | 100 to 1000
17 | O=C(Nc1nc2ccccc2[nH]1)c1cccc(Cn2nc(-c3cncc(CO)c3)ccc2=O)c1 [Example 17, N-(1H-Benzoimidazol-2-yl)-3-[3-(5-hydroxymethyl-pyridin-3-yl)-6-oxo-6H-pyridazin-1-ylmethyl]-benzamide] | < 100 | < 100
